Test results published in patent US20120316234A1, “ANTHRAQUINONE -BASED COMPOUND, THE SYNTHESIS PROCESSES AND THE APPLICATION THEREOF” (NATIONAL DEFENSE MEDICAL CENTER, priority 2011, published 2012).

Key:
[1] = tested on: telomerase (total cell lysates of lung cancer cell line H1299); assay: Telomeric repeat amplification protocol (TRAP) telomerase activity analysis; format: biochemical; conditions: 100 μM of compound; telomerase source H1299 cell lysate; gel electrophoresis, SYBER Green staining
Protocol: Telomerase elongated product (CX primer: [NT]) was replicated by PCR. […] Three different concentrations of compounds were performed.

melting point [°C] | SMILES | telomerase inhibition activity (TRAP analysis, FIG. 5) [1]
155 to 156 | COC(=O)CNCCC(=O)Nc1ccc(NC(=O)CCNCC(=O)OC)c2c1C(=O)c1ccccc1C2=O [Compound 10] | have telomerase inhibition activity
349 to 350 | O=C(CCl)Nc1cccc2c1C(=O)c1cccc(NC(=O)CCl)c1C2=O [Compound 11, 1,5-Bis(chloroacetamido)anthraquinone] | –
323 to 324 | O=C(CCl)Nc1ccc2c(c1)C(=O)c1ccc(NC(=O)CCl)cc1C2=O | –
150 to 151 | COC(=O)CNCCC(=O)Nc1cccc2c1C(=O)c1cccc(NC(=O)CCNCC(=O)OC)c1C2=O [Compound 21] | have telomerase inhibition activity
